Experiments:
false cleavers = experiment: Test Example 4: herbicidal effect by soil treatment (Table 19, symbol Q); type: in vivo, false cleavers (Galium spurium); conditions: amount of applied herbicide 320 g/ha
Outline: (§1)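 Applied as a water-diluted emulsion, the compound was sprayed onto soil covering newly sown seeds. Evaluation came three weeks after application, in a greenhouse held at 25° C. to 30° C.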

rice flat sedge = experiment: Test Example 3: herbicidal effect by foliage application, Wagner pot (Table 18, symbol E); type: in vivo, rice flat sedge (Cyperus iria)
Outline: (§2)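 Plants were sown in alluvial soil held under 0.1–0.5 cm standing water and grown 14 days in a greenhouse at 25–30 °C. An emulsifiable formulation, water-diluted to the set dose, was then sprayed onto the foliage, and effects were scored three weeks later using previously defined criteria.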

lambsquarters [1] = experiment: Test Example 4: herbicidal effect by soil treatment (Table 19, symbol O); type: in vivo, lambsquarters (Chenopodium album); conditions: amount of applied herbicide 320 g/ha
Outline: as §1

chickweed [2] = experiment: Test Example 4: herbicidal effect by soil treatment (Table 19, symbol P); type: in vivo, common chickweed (Stellaria media); conditions: amount of applied herbicide 320 g/ha
Outline: as §1

redroot pigweed [3] = experiment: Test Example 5: herbicidal effect by foliage application, plastic box (Table 20, symbol N); type: in vivo, redroot pigweed (Amaranthus retroflexus); conditions: foliage application, 320 g/ha, three weeks after application
Outline: (§3)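 Sow seeds spot-wise in sterilized diluvial soil; cover with ~1.5 cm soil. Grow 14 days in greenhouse, 25° C. to 30° C. Spray foliage with emulsion diluted to predetermined amount. Rate effect after 3 weeks.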

wild oat [4] = experiment: Test Example 5: herbicidal effect by foliage application, plastic box (Table 20, symbol I); type: in vivo, wild oat (Avena fatua); conditions: foliage application, 320 g/ha, three weeks after application
Outline: as §3

redroot pigweed [5] = experiment: Test Example 4: herbicidal effect by soil treatment (Table 19, symbol N); type: in vivo, redroot pigweed (Amaranthus retroflexus); conditions: amount of applied herbicide 320 g/ha
Outline: as §1

green foxtail [6] = experiment: Test Example 4: herbicidal effect by soil treatment (Table 19, symbol G); type: in vivo, green foxtail (Setaria viridis); conditions: amount of applied herbicide 320 g/ha
Outline: as §1

Italian ryegrass [7] = experiment: Test Example 5: herbicidal effect by foliage application, plastic box (Table 20, symbol K); type: in vivo, Italian ryegrass (Lolium multiflorum); conditions: foliage application, 320 g/ha, three weeks after application
Outline: as §3

lambsquarters [8] = experiment: Test Example 5: herbicidal effect by foliage application, plastic box (Table 20, symbol O); type: in vivo, lambsquarters (Chenopodium album); conditions: foliage application, 320 g/ha, three weeks after application
Outline: as §3

barnyard grass [9] = experiment: Test Example 5: herbicidal effect by foliage application, plastic box (Table 20, symbol H); type: in vivo, barnyard grass (Echinochloa crus-galli); conditions: foliage application, 320 g/ha, three weeks after application
Outline: as §3

Italian ryegrass [10] = experiment: Test Example 4: herbicidal effect by soil treatment (Table 19, symbol K); type: in vivo, Italian ryegrass (Lolium multiflorum); conditions: amount of applied herbicide 320 g/ha
Outline: as §1

windgrass [11] = experiment: Test Example 4: herbicidal effect by soil treatment (Table 19, symbol L); type: in vivo, windgrass (Apera spica-venti); conditions: amount of applied herbicide 320 g/ha
Outline: as §1

windgrass [12] = experiment: Test Example 5: herbicidal effect by foliage application, plastic box (Table 20, symbol L); type: in vivo, windgrass (Apera spica-venti); conditions: foliage application, 320 g/ha, three weeks after application
Outline: as §3

velvetleaf [13] = experiment: Test Example 4: herbicidal effect by soil treatment (Table 19, symbol M); type: in vivo, velvetleaf (Abutilon theophrasti); conditions: amount of applied herbicide 320 g/ha
Outline: as §1

barnyard grass [14] = experiment: Test Example 3: herbicidal effect by foliage application, Wagner pot (Table 18, symbol H); type: in vivo, barnyard grass (Echinochloa crus-galli)
Outline: as §2

southern crabgrass [15] = experiment: Test Example 5: herbicidal effect by foliage application, plastic box (Table 20, symbol F); type: in vivo, southern crabgrass (Digitaria ciliaris); conditions: foliage application, 320 g/ha, three weeks after application
Outline: as §3

Chinese sprangletop = experiment: Test Example 3: herbicidal effect by foliage application, Wagner pot (Table 18, symbol D); type: in vivo, chinese sprangletop (Leptochloa chinensis)
Outline: as §2

chickweed [16] = experiment: Test Example 5: herbicidal effect by foliage application, plastic box (Table 20, symbol P); type: in vivo, common chickweed (Stellaria media); conditions: foliage application, 320 g/ha, three weeks after application
Outline: as §3

velvetleaf [17] = experiment: Test Example 5: herbicidal effect by foliage application, plastic box (Table 20, symbol M); type: in vivo, velvetleaf (Abutilon theophrasti); conditions: foliage application, 320 g/ha, three weeks after application
Outline: as §3

persian speedwell [18] = experiment: Test Example 4: herbicidal effect by soil treatment (Table 19, symbol R); type: in vivo, Persian speedwell (Veronica persica); conditions: amount of applied herbicide 320 g/ha
Outline: as §1

green foxtail [19] = experiment: Test Example 5: herbicidal effect by foliage application, plastic box (Table 20, symbol G); type: in vivo, green foxtail (Setaria viridis); conditions: foliage application, 320 g/ha, three weeks after application
Outline: as §3

persian speedwell [20] = experiment: Test Example 5: herbicidal effect by foliage application, plastic box (Table 20, symbol R); type: in vivo, Persian speedwell (Veronica persica); conditions: foliage application, 320 g/ha, three weeks after application
Outline: as §3

blackgrass [21] = experiment: Test Example 5: herbicidal effect by foliage application, plastic box (Table 20, symbol J); type: in vivo, blackgrass (Alopecurus myosuroides); conditions: foliage application, 320 g/ha, three weeks after application
Outline: as §3

wild oat [22] = experiment: Test Example 4: herbicidal effect by soil treatment (Table 19, symbol I); type: in vivo, wild oat (Avena fatua); conditions: amount of applied herbicide 320 g/ha
Outline: as §1

southern crabgrass [23] = experiment: Test Example 4: herbicidal effect by soil treatment (Table 19, symbol F); type: in vivo, southern crabgrass (Digitaria ciliaris); conditions: amount of applied herbicide 320 g/ha
Outline: as §1

blackgrass [24] = experiment: Test Example 4: herbicidal effect by soil treatment (Table 19, symbol J); type: in vivo, blackgrass (Alopecurus myosuroides); conditions: amount of applied herbicide 320 g/ha
Outline: as §1

barnyard grass [25] = experiment: Test Example 4: herbicidal effect by soil treatment (Table 19, symbol H); type: in vivo, barnyard grass (Echinochloa crus-galli); conditions: amount of applied herbicide 320 g/ha
Outline: as §1

[26] = amount of applied herbicide 320 g/ha

## CC(=O)CSc1ccc(-c2sc3ccc(F)cc3c2-c2c(O)c(C)nn(C)c2=O)cc1 [2-424]
False cleavers
  herbicidal effect, Q: false cleavers: 0 (Herbicidal rate of 5% or less (almost no effect))
Rice flat sedge; [26]
  herbicidal effect on E: rice flat sedge: 4 (Herbicidal rate of 70% or more and less than 90%)
Lambsquarters [1]
  herbicidal effect, O: lambsquarters: 3 (Herbicidal rate of 40% or more and less than 70%)
Chickweed [2]
  herbicidal effect, P: chickweed: 0 (Herbicidal rate of 5% or less (almost no effect))
Redroot pigweed [3]
  N: redroot pigweed, herbicidal effect grade: 5 (Herbicidal rate of 90% or more (almost completely withered))
Wild oat [4]
  I: wild oat, herbicidal effect grade: 4 (Herbicidal rate of 70% or more and less than 90%)
Redroot pigweed [5]
  herbicidal effect, N: redroot pigweed: 4 (Herbicidal rate of 70% or more and less than 90%)
Green foxtail [6]
  herbicidal effect, G: green foxtail: 0 (Herbicidal rate of 5% or less (almost no effect))
Italian ryegrass [7]
  K: Italian ryegrass, herbicidal effect grade: 1 (Herbicidal rate of 5% or more and less than 20%)
Lambsquarters [8]
  O: lambsquarters, herbicidal effect grade: 3 (Herbicidal rate of 40% or more and less than 70%)
Barnyard grass [9]
  H: barnyard grass, herbicidal effect grade: 5 (Herbicidal rate of 90% or more (almost completely withered))
Italian ryegrass [10]
  herbicidal effect, K: Italian ryegrass: 0 (Herbicidal rate of 5% or less (almost no effect))
Windgrass [11]
  herbicidal effect, L: windgrass: 0 (Herbicidal rate of 5% or less (almost no effect))
Windgrass [12]
  L: windgrass, herbicidal effect grade: 4 (Herbicidal rate of 70% or more and less than 90%)
Velvetleaf [13]
  herbicidal effect, M: velvetleaf: 2 (Herbicidal rate of 20% or more and less than 40%)
Barnyard grass [14]; [26]
  herbicidal effect on H: barnyard grass: 5 (Herbicidal rate of 90% or more (almost completely withered))
Southern crabgrass [15]
  F: southern crabgrass, herbicidal effect grade: 3 (Herbicidal rate of 40% or more and less than 70%)
Chinese sprangletop; [26]
  herbicidal effect on D: Chinese sprangletop: 3 (Herbicidal rate of 40% or more and less than 70%)
Chickweed [16]
  P: chickweed, herbicidal effect grade: 5 (Herbicidal rate of 90% or more (almost completely withered))
Velvetleaf [17]
  M: velvetleaf, herbicidal effect grade: 3 (Herbicidal rate of 40% or more and less than 70%)
Persian speedwell [18]
  herbicidal effect, R: persian speedwell: 0 (Herbicidal rate of 5% or less (almost no effect))
Green foxtail [19]
  G: green foxtail, herbicidal effect grade: 3 (Herbicidal rate of 40% or more and less than 70%)
Persian speedwell [20]
  R: persian speedwell, herbicidal effect grade: 4 (Herbicidal rate of 70% or more and less than 90%)
Blackgrass [21]
  J: blackgrass, herbicidal effect grade: 3 (Herbicidal rate of 40% or more and less than 70%)
Wild oat [22]
  herbicidal effect, I: wild oat: 0 (Herbicidal rate of 5% or less (almost no effect))
Southern crabgrass [23]
  herbicidal effect, F: southern crabgrass: 0 (Herbicidal rate of 5% or less (almost no effect))
Blackgrass [24]
  herbicidal effect, J: blackgrass: 0 (Herbicidal rate of 5% or less (almost no effect))
Barnyard grass [25]
  herbicidal effect, H: barnyard grass: 0 (Herbicidal rate of 5% or less (almost no effect))

## Cc1nn(C)c(=O)c(-c2c(-c3ccc(OC(F)(F)F)cc3)sc3cc(F)ccc23)c1O [3-143]
False cleavers
  Herbicidal effect by soil treatment, Q: false cleavers: 3 (Herbicidal rate of 40% or more and less than 70%)
Rice flat sedge; 320 g/ha
  herbicidal effect on rice flat sedge (E): 5 (Herbicidal rate of 90% or more (almost completely withered))
Lambsquarters [1]
  Herbicidal effect by soil treatment, O: lambsquarters: 4 (Herbicidal rate of 70% or more and less than 90%)
Chickweed [2]
  Herbicidal effect by soil treatment, P: chickweed: 0 (Herbicidal rate of 5% or less (almost no effect))
Redroot pigweed [3]
  N: redroot pigweed, herbicidal effect grade: 5 (Herbicidal rate of 90% or more (almost completely withered))
Wild oat [4]
  I: wild oat, herbicidal effect grade: 0 (Herbicidal rate of 5% or less (almost no effect))
Redroot pigweed [5]
  Herbicidal effect by soil treatment, N: redroot pigweed: 4 (Herbicidal rate of 70% or more and less than 90%)
Green foxtail [6]
  Herbicidal effect by soil treatment, G: green foxtail: 2 (Herbicidal rate of 20% or more and less than 40%)
Italian ryegrass [7]
  K: Italian ryegrass, herbicidal effect grade: 5 (Herbicidal rate of 90% or more (almost completely withered))
Lambsquarters [8]
  O: lambsquarters, herbicidal effect grade: 5 (Herbicidal rate of 90% or more (almost completely withered))
Barnyard grass [9]
  H: barnyard grass, herbicidal effect grade: 4 (Herbicidal rate of 70% or more and less than 90%)
Italian ryegrass [10]
  Herbicidal effect by soil treatment, K: Italian ryegrass: 0 (Herbicidal rate of 5% or less (almost no effect))
Windgrass [11]
  Herbicidal effect by soil treatment, L: windgrass: 4 (Herbicidal rate of 70% or more and less than 90%)
Windgrass [12]
  L: windgrass, herbicidal effect grade: 5 (Herbicidal rate of 90% or more (almost completely withered))
Velvetleaf [13]
  Herbicidal effect by soil treatment, M: velvetleaf: 0 (Herbicidal rate of 5% or less (almost no effect))
Barnyard grass [14]; 320 g/ha
  herbicidal effect on barnyard grass (H): 5 (Herbicidal rate of 90% or more (almost completely withered))
Southern crabgrass [15]
  F: southern crabgrass, herbicidal effect grade: 1 (Herbicidal rate of 5% or more and less than 20%)
Chinese sprangletop; 320 g/ha
  herbicidal effect on Chinese sprangletop (D): 4 (Herbicidal rate of 70% or more and less than 90%)
Chickweed [16]
  P: chickweed, herbicidal effect grade: 5 (Herbicidal rate of 90% or more (almost completely withered))
Velvetleaf [17]
  M: velvetleaf, herbicidal effect grade: 5 (Herbicidal rate of 90% or more (almost completely withered))
Persian speedwell [18]
  Herbicidal effect by soil treatment, R: persian speedwell: 3 (Herbicidal rate of 40% or more and less than 70%)
Green foxtail [19]
  G: green foxtail, herbicidal effect grade: 4 (Herbicidal rate of 70% or more and less than 90%)
Persian speedwell [20]
  R: persian speedwell, herbicidal effect grade: 5 (Herbicidal rate of 90% or more (almost completely withered))
Blackgrass [21]
  J: blackgrass, herbicidal effect grade: 5 (Herbicidal rate of 90% or more (almost completely withered))
Wild oat [22]
  Herbicidal effect by soil treatment, I: wild oat: 0 (Herbicidal rate of 5% or less (almost no effect))
Southern crabgrass [23]
  Herbicidal effect by soil treatment, F: southern crabgrass: 0 (Herbicidal rate of 5% or less (almost no effect))
Blackgrass [24]
  Herbicidal effect by soil treatment, J: blackgrass: 0 (Herbicidal rate of 5% or less (almost no effect))
Barnyard grass [25]
  Herbicidal effect by soil treatment, H: barnyard grass: 0 (Herbicidal rate of 5% or less (almost no effect))

From patent publication US20230085307A1, “PYRIDAZINONE COMPOUND AND HERBICIDE” (NISSAN CHEMICAL CORPORATION, priority 2019, published 2023)
